ChEMBL document CHEMBL1201862, “PubChem BioAssay data set” (2004)
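1) Cells in 96-well plates. 2) Compound, 48 h, 5 concentrations. 3) Linear interpolation between surrounding doses. 4) Unreached endpoint = highest concentration. GI50 marks 50% less growth.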 Calls of active or inactive are those of the source. No stated cut-off is given here; in the data, active = GI50 up to about 1.1 µM and inactive = higher.

Key:
Assay in all cases: NCI anticancer screen, dose series, 48 h
HCT-15 = tested on: HCT-15
UACC-257 = tested on: UACC-257
K562 = tested on: K562
HL-60 = tested on: HL-60
SF-268 = tested on: SF-268
Hs-578T = tested on: Hs-578T
SK-OV-3 = tested on: SK-OV-3
SK-MEL-5 = tested on: SK-MEL-5
UACC-62 = tested on: UACC-62
RXF 393 = tested on: RXF 393
SNB-75 = tested on: SNB-75
OVCAR-3 = tested on: OVCAR-3
KM12 = tested on: KM12
NCI-H23 = tested on: NCI-H23
EKVX = tested on: EKVX
SN12C = tested on: SN12C
SNB-19 = tested on: SNB-19
RPMI-8226 = tested on: RPMI-8226
HCC 2998 = tested on: HCC 2998
HOP-92 = tested on: HOP-92

| Compound | GI50 (HCT-15) [µM] | GI50 (UACC-257) | GI50 (K562) | GI50 (HL-60) | GI50 (SF-268) | GI50 (Hs-578T) | GI50 (SK-OV-3) | GI50 (SK-MEL-5) | GI50 (UACC-62) | GI50 (RXF 393) | GI50 (SNB-75) | GI50 (OVCAR-3) | GI50 (KM12) | GI50 (NCI-H23) | GI50 (EKVX) | GI50 (SN12C) | GI50 (SNB-19) | GI50 (RPMI-8226) | GI50 (HCC 2998) | GI50 (HOP-92) |
| --- | --- | --- | --- | --- | --- | --- | --- | --- | --- | --- | --- | --- | --- | --- | --- | --- | --- | --- | --- | --- |
| S=C1Nc2cnc3ccccc3c2SC1c1ccccc1 (stereo unspecified) | > 100 | > 100 µM (inactive) | > 100 µM (inactive) | > 100 µM (inactive) | > 100 µM (inactive) | 49.9 µM (inactive) | 72.8 µM (inactive) | > 100 µM (inactive) | > 100 µM (inactive) | 13 µM (inactive) | 28.4 µM (inactive) | > 100 µM (inactive) | > 100 µM (inactive) | 96.4 µM (inactive) | > 100 µM (inactive) | > 100 µM (inactive) | > 100 µM (inactive) | > 100 µM (inactive) |  |  |
| Cc1cn(CCCC2=NCCCN2)c(=O)[nH]c1=O | > 100 | > 100 µM (inactive) | > 100 µM (inactive) |  | > 100 µM (inactive) | > 100 µM (inactive) | > 100 µM (inactive) | > 100 µM (inactive) | > 100 µM (inactive) | > 100 µM (inactive) | > 100 µM (inactive) | > 100 µM (inactive) | > 100 µM (inactive) | > 100 µM (inactive) | > 100 µM (inactive) | > 100 µM (inactive) | > 100 µM (inactive) | 79.1 µM (inactive) | > 100 µM (inactive) | > 100 µM (inactive) |
| COC(=O)Cc1cccc2c(=O)c(S(=O)(=O)NC(=O)Nc3ccc(Cl)cc3)c(-c3ccccc3)oc12 | 8.75 | 87.5 µM (inactive) | 4.3 µM (inactive) |  | 73.5 µM (inactive) | > 100 µM (inactive) | > 100 µM (inactive) | 30.2 µM (inactive) | 13.5 µM (inactive) |  | > 100 µM (inactive) | 79.8 µM (inactive) | 34.4 µM (inactive) | 57 µM (inactive) | > 100 µM (inactive) | 36.6 µM (inactive) | 44.6 µM (inactive) |  | 54.6 µM (inactive) | 29.6 µM (inactive) |
| COc1ccc(NCC(=O)Nn2c(C)nc3ccc(S(=O)(=O)Nc4ccc(OC)cc4)cc3c2=O)cc1 | > 100 | > 100 µM (inactive) | > 100 µM (inactive) | > 100 µM (inactive) | > 100 µM (inactive) | > 100 µM (inactive) | > 100 µM (inactive) |  | > 100 µM (inactive) |  | > 100 µM (inactive) | > 100 µM (inactive) | > 100 µM (inactive) | > 100 µM (inactive) | > 100 µM (inactive) | > 100 µM (inactive) | > 100 µM (inactive) | > 100 µM (inactive) | > 100 µM (inactive) | > 100 µM (inactive) |
| O=S(=O)(c1ccccc1)N1CCN(S(=O)(=O)c2ccccc2)c2ccccc21 | 92.7 | 75.5 µM (inactive) | 96.4 µM (inactive) |  | > 100 µM (inactive) | > 100 µM (inactive) | > 100 µM (inactive) | 73.3 µM (inactive) | 64.7 µM (inactive) | > 100 µM (inactive) | > 100 µM (inactive) | > 100 µM (inactive) | > 100 µM (inactive) | 52.1 µM (inactive) | 31 µM (inactive) | > 100 µM (inactive) | > 100 µM (inactive) | > 100 µM (inactive) | > 100 µM (inactive) | > 100 µM (inactive) |
| O=c1[nH]c(=O)n2n1C1C=CC2CC1 | > 100 | > 100 µM (inactive) | > 100 µM (inactive) | > 100 µM (inactive) | > 100 µM (inactive) | > 100 µM (inactive) | > 100 µM (inactive) | > 100 µM (inactive) | > 100 µM (inactive) |  | > 100 µM (inactive) | > 100 µM (inactive) | > 100 µM (inactive) | > 100 µM (inactive) | > 100 µM (inactive) | > 100 µM (inactive) | > 100 µM (inactive) | > 100 µM (inactive) |  | > 100 µM (inactive) |
| N#Cc1c(Nc2nc3ccccc3s2)c2ccccc2n2c1nc1ccccc12 | > 100 | > 100 µM (inactive) |  | > 100 µM (inactive) | > 100 µM (inactive) | 45.5 µM (inactive) |  | > 100 µM (inactive) | > 100 µM (inactive) |  | 24.5 µM (inactive) | > 100 µM (inactive) | > 100 µM (inactive) | > 100 µM (inactive) | > 100 µM (inactive) | > 100 µM (inactive) | > 100 µM (inactive) | > 100 µM (inactive) | > 100 µM (inactive) | > 100 µM (inactive) |
